# Data reported in patent publication US9133435B2, “Method for induction/differentiation into photoreceptor cell” (RIKEN, priority 2007, dated 2015).
# What was measured:
# mouse ES cells = experiment: Induction of differentiation of mouse ES cells into neural cells (βII tubulin-positive cells); assay type: cell-based; conditions: SB-431542 0.1 to 10 μM or CKI-7 1 to 100 μM, single agent
# Experimental: Mouse ES cells were cultured in the presence of SB-431542 (0.1 to 10 μM) and/or CKI-7 (1 to 100 μM) under SFEB conditions. Five days after the start of the culture, the cells were recovered and re-suspended in a fresh differentiation medium, and, to produce re-aggregated pellets, the suspension was centrifuged at 800 g for 10 minutes. After cultivation at 37° C. for 1 hour, three to five re-aggregated pellets per cm^2 were replated onto poly-D-lysine/laminin/fibronectin-coated culture slides, along with differentiation medium. After cultivation for 5 days, the cells were fixed and stained with anti-βII tubulin antibody, and the ratio of βII tubulin-positive cells was determined under microscopy. The other experimental conditions were the same as those for Example 1.
# [1] = system: purified ES-derived Rx+ cells; experiment: Differentiation of ES-derived photoreceptor precursors into opsin+ cone and rhodopsin+ rod photoreceptors; assay type: cell-based, mouse; conditions: for rod differentiation, factor added individually: after FACS purification and DAPT, acidic FGF 50 ng/ml, basic FGF 10 ng/ml, taurine 1 mM, shh 3 nM, RA 500 nM, from day 16, day 28
# Experimental: (§1) For FACS (see below), until day 9, cell aggregates were incubated in a differentiation medium under suspension culture conditions. After FACS, 1−2×10^4 sorted cells were re-suspended in a differentiation medium containing 10% FCS, and to produce re-aggregated pellets, the suspension was centrifuged at 800 g for 10 minutes. After cultivation at 37° C. for 1 hour, three to five re-aggregated pellets per cm^2 were replated on a poly-D-lysine/laminin/fibronectin-coated culture slides with a differentiation medium supplemented with 10% FCS. On day 10, the culture medium was changed to a differentiation medium not containing FCS, and containing or not containing the gamma secretase inhibitor N—[N-(3,5-difluorophenacetyl)-L-alanyl]-S-phenylglycine t-butyl ester (DAPT, 10 μM, Calbiochem).
# For photoreceptor differentiation, on day 16, the medium was replaced with a retinal culture medium containing the factors shown in FIG. 3a (66% E-MEM-HEPES (Sigma M7278), 33% HBSS (Gibco 24020-117), 1% FCS supplemented with N2, 5.75 mg/ml glucose, 200 μM L-glutamine, 100 U/ml penicillin, and 100 μg/ml streptomycin (Gibco)). aFGF (R & D Systems) and bFGF (R & D Systems) were added during differentiation for 16-24 days; taurine (Sigma), shh (R & D Systems), and RA (Sigma) were added during differentiation days 16-28. The medium was replaced with a fresh supply every 2 days.
# (§2) Immunohistological staining was performed as described previously (reference documents A20, 24). The primary antibodies used in this study were as follows: • Anti-Crx (rat/polyclonal/1:200, reference document A6), • Anti-Ki67 (mouse/monoclonal/1:200/BD), • Anti-BrdU (mouse/monoclonal/1:50/BD), • Anti-active caspase-3 (rabbit/monoclonal/1:500/BD), • Anti-red/green opsin (rabbit/polyclonal/1:1000/Chemicon), • Anti-blue opsin (rabbit/polyclonal/1:500/Chemicon), • Anti-rhodopsin (RetP1; mouse/monoclonal/1:1000/SIGMA) and • Anti-Recoverin (rabbit/polyclonal/1:5000/Chemicon).
# (§3) The immunoreactivity of each antibody was confirmed by immunostaining an appropriate retinal tissue as a positive control under the same conditions. Total cell counts were determined by counting nuclei stained by TOTO-3 or DAPI (Molecular Probes). Positive cells were counted in optical slice images prepared by confocal (Leica) or ApoTome (Zeiss) microscopy.
# (§4) For statistical analyses, at least 2500 cells were examined in each experiment, which was performed at least 3 times. All statistical analyses were performed using GraphPad InStat version 3.0 (GraphPad Software Inc., San Diego, Calif., USA). The statistical significance of differences was determined by one-way analysis of variance (ANOVA) followed by Tukey's test for the experiments in FIG. 1f, by one-way ANOVA followed by Dunnett's multiple comparison test for the experiment in FIG. 3b, by two-way ANOVA followed by Bonferroni's test for the experiment in FIG. 1j-l. Probability values less than 5% were considered significant.
# purified Rx+ cells = experiment: Ki67 expression, BrdU uptake and active caspase 3 in purified Rx+ cells; assay type: cell-based, mouse
# Experimental: as §1
# BrdU uptake was examined by culturing the cells in a medium containing 5 μg/ml BrdU for 24 hours before fixation.
# as §2, §3, §4
# Retinae of E17.5 mouse = experiment: Tissue culture of embryonic retina treated with DAPT (Crx staining, RT-PCR); assay type: cell-based; conditions: 10 μM DAPT
# Experimental: FIG. 4 The gamma secretase inhibitor DAPT promotes the differentiation of photoreceptor precursors. Retinae of E17.5 mouse were treated, or not treated, with 10 μM DAPT under tissue culture conditions for 2-4 days. (a, b) Two days later, the retinae were stained for Crx (green) and TOTO-3 (blue). Many Crx^+ (green) photoreceptor precursors were found in the DAPT-treated retina (a), whereas several Crx^+ were found in non-treated retina (b). GC, ganglion cell layer; NBL, neuroblastic layer; ONL, outer nuclear layer. (c) RT-PCR analysis of retina treated or not treated with DAPT for 2 or 4 days. It was confirmed that the expression of Hes1 and Hes5 had been decreased in the DAPT-treated retina.
# RT-PCR analysis was performed as reported previously (reference documents A7, 20). The primers used are as follows: […]
# [2] = system: FACS-purified ES-derived Rx-GFP+ retinal progenitor cells; experiment: Differentiation of FACS-purified ES-derived retinal progenitor cells into Crx+ photoreceptor precursors (immunostaining); assay type: cell-based, mouse
# Experimental: Methods for mouse ES cell maintenance and differentiation in SFEB conditions were previously reported (reference documents A7, 20). For the sake of the SFEB/DLFA, Dkk1 (R & D Systems, 100 ng/ml, during days 0-5), LeftyA (R & D Systems, 500 ng/ml, during days 0-5), 5% FCS (JRH Biosciences, during days 3-5), and Activin-A (R & D Systems, 10 ng/ml, during days 4-5) were added to a differentiation medium (G-MEM, 5% KSR, 0.1 mM non-essential amino acids, 1 mM pyruvic acid, and 0.1 mM 2-mercaptoethanol) (reference document A6).
# as §1
# On day 9, SFEB/DLFA-treated ES cell aggregates were dissociated with trypsin (0.25%, Invitrogen) and DNaseI (10 μg/ml, Sigma) into single cells. After neutralization, the cells were re-suspended in HBSS containing 0.1% BSA and 5 μg/ml propidium iodide (PI, Sigma), and passed through a cell strainer (BD) as described previously (reference documents A7, 21). The cells were counted and sorted using FACS Aria (BD Biosciences), and data were analyzed using the FACS Diva software (BD Biosciences). Dead cells were excluded by gating forward and side scatter and PI staining. Cells with Rx-GFP fluorescence (band-pass filter: FITC, 530 nm) were sorted and further cultured. […]
# as §3
# as §4, with “All statistical analyses were performed using GraphPad InStat version 3.0 (GraphPad Software Inc., San Diego, Calif., USA).” left out, “Probability values less than 5% were considered significant.” left out
# monkey ES cells = experiment: Differentiation of monkey ES cells into retinal cells (SFEB culture, immunocytochemistry); assay type: cell-based, cynomolgus monkey; conditions: day 40, Dkk-1 100 ng/ml, Lefty-A 500 ng/ml
# Experimental: ES colonies were partially dissociated with 0.25% trypsin (in a PBS containing 1 mM CaCl2 and 20% KSR) into clumps (5 to 10 cells per clump). It is noticeable that when this clumps of ES cells were too large (for example, exceeding 50 cells per aggregate), the neural induction efficiency declined. When ES cells dispersed to single cells were used, the cell viability declined, and retinal cells could not efficiently be induced. ES clumps were incubated on a gelatin-coated dish for 30 minutes, whereby STO feeders were removed. ES clumps were plated on a dish of bacterial grade using an ES differentiation medium at a density of 6.7×10^3 aggregate per ml. The composition of the differentiation medium was as follows. [G-MEM (GIBCO), 10% KSR, Lot.1139720 and 1219101, 0.1 mM non-essential amino acids, 1 mM pyruvate and 0.1 mM 2-mercaptoethanol]. […]
# Values are expressed as means±S.E.M. For statistic analysis, 100 to 200 colonies in each experiment were examined, each experiment being performed at least 3 times. […] For the experiments in FIG. 7b, statistical significance of difference was determined by one-way analysis of variance (ANOVA) followed by Dunnet's test. The data obtained from FIG. 8a, d, e, h and i were evaluated by unpaired t-test. […]
# [3] = DAPT from day 10, retinal differentiation medium from day 16, day 28
molecule,measurement,setting,value
"NCCNS(=O)(=O)c1ccc(Cl)c2ccncc12 [CKI-7, N-(2-aminoethyl)-5-chloro-isoquinoline-8-sulfonamide]",number of βII tubulin-positive cells,mouse ES cells,increased
"C[C@H](NC(=O)Cc1cc(F)cc(F)c1)C(=O)N[C@H](C(=O)OC(C)(C)C)c1ccccc1 [DAPT, N—[N-(3,5-difluorophenacetyl)-L-alanyl]-S-phenylglycine t-butyl ester]",ES-derived cells expressing blue opsin,[1]; [3],10.7±1.6%
same,ES-derived cells expressing red/green opsin,[1]; [3],11.5±2.0%
same,cells expressing rhodopsin,"[1]; DAPT only, no further factors, day 28",5.5±0.5%
same,proportion of cells positive for active caspase,purified Rx+ cells; day 11,0.17±0.04%
same,proportion of cells positive for active caspase,purified Rx+ cells; day 12,0.13±0.04%
same,proportion of cells positive for active caspase,purified Rx+ cells; day 14,0.10±0.07%
same,Ki67+ cell population versus non-treated cells,"purified Rx+ cells; day 14 and thereafter, DAPT from day 10",smaller
same,proportion of cells positive for active caspase,purified Rx+ cells; day 16,0.10±0.01%
same,proportion of cells positive for active caspase,purified Rx+ cells; day 18,0.13±0.02%
same,proportion of cells positive for active caspase,purified Rx+ cells; day 20,0.10±0.15%
same,"proportion of cells positive for active caspase, DAPT-treated versus non-treated","purified Rx+ cells; days 11-20, Ki67+ population",no significant difference
same,BrdU+ cells versus non-treated control,"purified Rx+ cells; days 14-20, BrdU uptake 24 hours",fewer
same,ratio of Crx+ photoreceptor precursors in embryonic retinal tissue,Retinae of E17.5 mouse; tissue culture,considerably increased
same,expression of the differentiation inhibitors Hes1 and Hes5,"Retinae of E17.5 mouse; tissue culture 2 or 4 days, RT-PCR",suppressed
same,frequency of Crx+ cell aggregates,"[2]; 10 μM DAPT, most effective on days 10 to 20",significantly raised
same,Crx expression in Rx-GFP− cells,"[2]; Rx-GFP− cells treated with DAPT from day 10, day 20",did not express Crx
same,promotion of differentiation into Crx+ photoreceptor precursors in non-FACS-sorted cells,[2]; non-FACS-sorted ES cell-derived neural retinal progenitor cells treated with DAPT,no evident promotion
same,percentage of Crx+ cells,"[2]; sorted Rx-GFP+ cells, 10 μM DAPT from day 10, determined on day 20",22.4±2.9%
NC(=O)c1ccc(-c2nc(-c3ccc4c(c3)OCO4)c(-c3ccccn3)[nH]2)cc1 [SB-431542],number of βII tubulin-positive cells,mouse ES cells,increased
NCCS(=O)(=O)O [taurine],"rod differentiation, factor added individually",[1],promoted rod differentiation
"acidic FGF: acidic FGF (R & D Systems), soluble factor","rod differentiation, factor added individually",[1],promoted rod differentiation
"basic FGF: basic FGF (R & D Systems), soluble factor","rod differentiation, factor added individually",[1],promoted rod differentiation
"Lefty-A: Lefty-A protein, nodal antagonist (protein, UniProt O00292 77-366, looked up) Left-right determination …: RFSQSFREVAGRFLASEASTHLLVFGMEQRLPPNSELVQAVLRLFQEPVPKAALHRHGRLSPRSAQARVTVEWLRVRDDGSNRTSLIDSRLVSVHESGWKAFDVTEAVNFWQQLSRPRQPLLLQVSVQREHLGPLASGAHKLVRFASQGAPAGLGEPQLELHTLDLRDYGAQGDCDPEAPMTEGTRCCRQEMYIDLQGMKWAKNWVLEPPGFLAYECVGTCQQPPEALAFNWPFLGPRQCIASETASLPMIVSIKEGGRTRPQVVSLPNMRVQKCSCASDGALVPRRLQP",ratio of Mitf+ colonies,monkey ES cells,50.8±5.0%
"Dkk-1: Recombinant Dkk-1 protein, Wnt antagonist (protein, UniProt O94907 32-266, looked up) Dickkopf-related protein 1: TLNSVLNSNAIKNLPPPLGGAAGHPGSAVSAAPGILYPGGNKYQTIDNYQPYPCAEDEECGTDEYCASPTRGGDAGVQICLACRKRRKRCMRHAMCCPGNYCKNGICVSSDQNHFRGEIEETITESFGNDHSTLDGYSRRTTLSSKMYHTKGQEGSVCLRSSDCASGLCCARHFWSKICKPVLKEGQVCTKHRRKGSHGLEIFQRCYCGEGLSCRIQKDHHQASNSSRLHTCQRH",ratio of Mitf+ colonies,monkey ES cells,35.3±4.4%
